Measured values published in patent US20240342159A1, “VALBENAZINE FOR USE IN THE ADD-ON TREATMENT OF SCHIZOPHRENIA” (Neurocrine Biosciences, Inc., priority 2021, published 2024).

Experiments:
CYP2D6 = CYP2D6 (Homo sapiens, UniProt P10635); assay: metabolism of NBI-98782 by CYP2D6; format: in vitro ADME
[1] = central nervous system, respiratory and cardiovascular safety pharmacology studies; format: in vivo; conditions: compared with human exposure
[2] = system: cytochrome P450 (CYP) enzyme; assay: cytochrome P450 (CYP) enzyme inhibition or induction; format: in vitro ADME; conditions: at pharmacologically relevant concentrations
P-glycoprotein = P-glycoprotein (Homo sapiens, UniProt P08183); assay: P-glycoprotein inhibition; format: in vitro ADME; conditions: only at concentrations that could be achieved in the gastrointestinal tract
Sequence of P-glycoprotein (P08183 whole entry): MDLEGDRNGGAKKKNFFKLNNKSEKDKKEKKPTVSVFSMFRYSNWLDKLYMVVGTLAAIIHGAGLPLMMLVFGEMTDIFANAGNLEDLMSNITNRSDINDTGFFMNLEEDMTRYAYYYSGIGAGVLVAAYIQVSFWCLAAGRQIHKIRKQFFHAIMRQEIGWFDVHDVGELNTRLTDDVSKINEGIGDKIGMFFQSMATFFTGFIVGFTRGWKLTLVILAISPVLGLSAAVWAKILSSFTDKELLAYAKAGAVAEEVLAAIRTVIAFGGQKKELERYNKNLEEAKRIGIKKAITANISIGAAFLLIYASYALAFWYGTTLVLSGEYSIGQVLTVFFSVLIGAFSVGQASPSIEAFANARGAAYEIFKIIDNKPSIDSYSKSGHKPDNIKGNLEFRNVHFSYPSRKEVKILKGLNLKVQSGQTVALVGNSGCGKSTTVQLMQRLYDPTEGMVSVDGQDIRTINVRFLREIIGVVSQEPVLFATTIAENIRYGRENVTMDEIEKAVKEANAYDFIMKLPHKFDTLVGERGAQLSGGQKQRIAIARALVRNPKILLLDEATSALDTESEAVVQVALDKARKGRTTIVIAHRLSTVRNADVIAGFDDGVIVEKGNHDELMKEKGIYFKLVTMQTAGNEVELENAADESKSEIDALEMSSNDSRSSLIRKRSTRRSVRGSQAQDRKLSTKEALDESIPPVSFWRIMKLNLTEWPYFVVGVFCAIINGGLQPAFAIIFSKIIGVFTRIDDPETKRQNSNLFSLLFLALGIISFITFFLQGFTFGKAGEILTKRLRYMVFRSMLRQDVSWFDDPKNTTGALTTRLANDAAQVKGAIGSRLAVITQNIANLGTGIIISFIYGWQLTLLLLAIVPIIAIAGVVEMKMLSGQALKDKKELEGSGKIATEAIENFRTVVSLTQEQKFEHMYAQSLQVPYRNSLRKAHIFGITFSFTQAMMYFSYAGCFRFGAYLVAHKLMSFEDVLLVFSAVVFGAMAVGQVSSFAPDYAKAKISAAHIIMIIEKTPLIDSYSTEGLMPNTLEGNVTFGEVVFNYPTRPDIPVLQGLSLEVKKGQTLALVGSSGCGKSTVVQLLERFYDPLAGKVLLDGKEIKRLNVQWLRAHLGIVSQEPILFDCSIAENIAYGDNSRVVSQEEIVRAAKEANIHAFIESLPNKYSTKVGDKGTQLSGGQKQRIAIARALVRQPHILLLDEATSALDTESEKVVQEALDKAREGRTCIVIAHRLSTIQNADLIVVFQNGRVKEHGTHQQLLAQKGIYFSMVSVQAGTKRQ

[3] = system: panel of other drug transporters; assay: inhibition of a panel of other drug transporters; format: in vitro ADME
[4] = metabolism of valbenazine by hydrolysis; format: in vitro ADME
mice = assay: repeat-dose nonclinical toxicology study, mouse; format: in vivo
rats [5] = assay: repeat-dose nonclinical toxicology study, rat; format: in vivo
dogs = assay: repeat-dose nonclinical toxicology study, dog; format: in vivo
rat fertility study = format: in vivo; conditions: rat, in vivo
rat fertility = rat fertility study; format: in vivo; conditions: 10 mg/kg/day
[6] = embryo/fetal development study, rats; format: in vivo, rat; conditions: rat, in vivo
Experimental: (§1) The NOAEL for embryo/fetal development in rats and rabbits was 15 mg/kg/day and 50 mg/kg/day, respectively. […] Valbenazine was negative in genotoxicity assays (in vitro Ames and chromosomal aberration assays and an in vivo rat micronucleus test).

rats [7] = assay: embryo/fetal development study, rats; format: in vivo, rat
Experimental: as §1

[8] = embryo/fetal development study, rabbits; format: in vivo, rabbit; conditions: rabbit, in vivo
Experimental: as §1

rabbits = assay: embryo/fetal development study, rabbits; format: in vivo, rabbit
Experimental: as §1

[9] = in vitro Ames genotoxicity assay; format: cell-based
Experimental: as §1

[10] = in vitro chromosomal aberration assay; format: cell-based
Experimental: as §1

rat = assay: in vivo rat micronucleus test
Experimental: as §1

rats [11] = assay: carcinogenicity study, rats; format: in vivo, rat
hemizygous Tg.rasH2 mice = assay: carcinogenicity study, hemizygous Tg.rasH2 mice; format: in vivo, mouse
adults with TD = assay: adverse reactions in 3 placebo-controlled studies in adults with tardive dyskinesia; format: in vivo, human; conditions: 6-week treatment
[12] = system: pediatric subjects with TS; assay: treatment-emergent adverse events in pediatric subjects with Tourette Syndrome; format: in vivo, human; conditions: higher incidence than placebo
From the text: (§2) Common treatment-emergent adverse events (TEAEs) in pediatric subjects with TS with incidence >5% in the valbenazine treatment groups and with a higher incidence than placebo include headache, somnolence, sedation, upper respiratory tract infection, insomnia, fatigue, vomiting, and suicidal ideation. In the entire valbenazine clinical development program as of 10 Apr. 2021, treatment-emergent serious adverse events (SAEs) occurring in 3 or more valbenazine-treated subjects each were schizophrenia, suicidal ideation, chronic obstructive pulmonary disease, syncope, abdominal pain, depression, mental status changes, and schizoaffective disorder.

[13] = system: valbenazine-treated subjects; assay: serious adverse events and deaths in the entire valbenazine clinical development program; format: in vivo, human
From the text: as §2
Ten deaths have been reported in completed and ongoing valbenazine studies conducted by NBI: 9 occurred in adult subjects with TD and 1 adult subject with HD. Eight deaths occurred in subjects taking valbenazine, 1 occurred in a subject taking placebo, and 1 remains blinded.

QT interval = QT interval prolongation in clinical use; format: in vivo, human
[14] = clinical safety signals (cardiovascular, laboratory, vital signs, serum prolactin, suicidality); format: in vivo, human

Sequence of CYP2D6 (P10635 whole entry): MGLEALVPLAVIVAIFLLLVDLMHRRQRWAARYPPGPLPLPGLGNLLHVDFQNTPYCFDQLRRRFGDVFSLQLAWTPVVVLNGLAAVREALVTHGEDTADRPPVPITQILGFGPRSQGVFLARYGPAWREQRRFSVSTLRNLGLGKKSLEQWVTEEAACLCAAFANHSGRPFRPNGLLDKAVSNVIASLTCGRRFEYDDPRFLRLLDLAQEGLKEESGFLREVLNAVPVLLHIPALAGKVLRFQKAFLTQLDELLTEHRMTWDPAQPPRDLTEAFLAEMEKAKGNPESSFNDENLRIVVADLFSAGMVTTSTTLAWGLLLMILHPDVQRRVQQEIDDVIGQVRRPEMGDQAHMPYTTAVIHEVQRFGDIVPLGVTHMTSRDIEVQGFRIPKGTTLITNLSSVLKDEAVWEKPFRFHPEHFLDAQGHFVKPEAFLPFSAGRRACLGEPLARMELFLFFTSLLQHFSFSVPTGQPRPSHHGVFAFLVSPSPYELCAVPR

With “(+)-α-3-isobutyl-9,10-dimethoxy-1,3,4,6,7,11b-hexahydro-2H-pyrido[2,1-a]isoquinolin-2-ol [NBI-98782]” the subsequent metabolism (CYP2D6) was “metabolized in part by CYP2D6” and the “systemic exposures at the NOAEL in safety pharmacology studies” value [1] was “above those achieved at the highest proposed therapeutic dose in humans”.
For COc1cc2c(cc1OC)[C@H]1C[C@@H](OC(=O)[C@@H](N)C(C)C)[C@H](CC(C)C)CN1CC2 [Valbenazine, L-valine, (2R,3R,11bR)-1,3,4,6,7,11b-hexahydro-9,10-dimethoxy-3-(2-methylpropyl)-2H-benzo[a]quinolizin-2-yl ester], the “CYP enzyme inhibition or induction” value [2] was “little or no cytochrome P450 (CYP) enzyme inhibition or induction”, the “inhibition of P-glycoprotein” value (P-glycoprotein) was “moderate inhibitor” and the “inhibition of a panel of other drug transporters” value [3] was “not an inhibitor”. The metabolic pathway [4] was “metabolized by hydrolysis to NBI-98782”, the “dose with no adverse effects, repeat-dose toxicology” value (mice) was 60 mg/kg/day and the “dose with no adverse effects, repeat-dose toxicology” value (rats [5]) was 3 mg/kg/day. The “dose with no adverse effects, repeat-dose toxicology” value (dogs) was 15 mg/kg/day, the “systemic exposures at the NOAEL in safety pharmacology studies” value [1] was “above those achieved at the highest proposed therapeutic dose in humans” and the NOAEL (rat fertility study) was 3 mg/kg/day. The “effect on rat fertility” value (rat fertility) was “modest negative effect”, the NOAEL [6] was 15 mg/kg/day and the teratogenicity (rats [7]) was “no evidence of teratogenicity”. For the same molecule, the NOAEL [8] was 50 mg/kg/day, the teratogenicity (rabbits) was “no evidence of teratogenicity” and the “genotoxicity, Ames assay” value [9] was “negative”. For the same molecule, the “genotoxicity, chromosomal aberration assay” value [10] was “negative”, the “genotoxicity, rat micronucleus test” value (rat) was “negative” and the “tumors in carcinogenicity study” value (rats [11]) was “did not increase tumors”. The “tumors in carcinogenicity study” value (hemizygous Tg.rasH2 mice) was “did not increase tumors”, the “incidence of anticholinergic effects (dry mouth, constipation, disturbance in attention, vision blurred, urinary retention)” value (adults with TD) was 5.4% and the “incidence of balance disorders/fall (fall, gait disturbance, dizziness, balance disorder)” value (adults with TD) was 4.1%. The “incidence of somnolence (somnolence, fatigue, sedation)” value (adults with TD) was 10.9%, the “incidence of common TEAEs: headache, somnolence, sedation, upper respiratory tract infection, insomnia, fatigue, vomiting, suicidal ideation” value [12] was > 5% and the “relationship of deaths to study drug” value ([13]; all ten deaths) was “not related or unlikely related”. The “deaths in subjects taking valbenazine” value ([13]; of ten deaths in completed and ongoing studies) was “Eight”, the “degree of QT prolongation” value (QT interval; at concentrations expected with recommended dosing) was “not clinically significant” and the “QT prolongation with higher valbenazine concentrations” value (QT interval; subjects taking a strong CYP2D6 or CYP3A4 inhibitor, or CYP2D6 poor metabolizers) was “QT prolongation clinically significant”. The “cardiovascular, laboratory or vital sign related safety signals” value ([14]; human, in vivo) was “No cardiovascular, laboratory, or vital sign related safety signals”, the suicidality ([14]; human, in vivo) was “does not appear to increase suicidality” and the serum prolactin ([14]; mean changes with placebo considerably smaller) was “Increases in serum prolactin above normal laboratory ranges”.
